We go through 8 compounds from patent EP0179751B1, “Ionophore polyether, process for its preparation and its use” (SANOFI, priority 1984, dated 1986).

Converted amounts (≈) assume the structure as drawn. Where two headings read alike, the source gives them in different places.

One data set can be described thus: solubility. The class given is physicochemical. The method, then:
Aspect: solide P.F. : 83-85° C Solubilité : se dissout dans les solvants organiques usuels, tels que les alcools inférieurs par exemple méthanol, éthanol, les esters inférieurs, par exemple l'acétate d'éthyle ou encore dans l'éther éthylique et le chloroforme. Dans l'eau, la solubilité est de 44 % environ. αj25 : +45° (c = 0,03 n, méthanol)
Aspect : mousse blanche solide. P.F. 120-123° C Solubilité : se dissout dans les solvants organiques usuels, tels que les alcools inférieurs par exemple méthanol, éthanol, les esters inférieurs par exemple l'acétate d'éthyle ou encore dans l'éther éthylique et le chloroforme. Par contre, il est insoluble dans l'eau.

A further data set has as its system Bacillus cereus. The data set can be described thus: minimum inhibitory concentration, dilution method. Type of data set: cell-based. The text has this:
Par exemple, on a décrit dans les brevets de l'Allemagne de l'Est Nos. 208 172 et 237 725 des complexes d'antibiotiques produits à partir de souches de Streptomyces hygroscopicus. Ces composés polyéthers sont caractérisés par une activité antibiotique importante et comparativement plus importante que celle présentée par la monensine ou la salinomycine. Par contre, l'abiérixine est douée d'activité antibiotique très faible par rapport à celle présentée par la plupart des ionophores polyéthers connus comme la monensine, la nigéricine ou la grisorixine. Par exemple, la concentration minimale inhibitrice de l'abiérixine vis-à-vis de Bacillus cereus déterminée selon la méthode de dilution est de 25 µg/ml mais de 0,05 µg/ml, 0,05 ug/ml et 3,12 gg/ml dans le cas respectivement de la monensine, de la nigéricine et de la grisorixine.

A further data set deals with flore ruménale. Description: in vitro rumen flora fermentation, nitrogen use. As to conditions: in the absence of protein nitrogen.
Another data set can be described thus: acute toxicity, oral. Conditions: mouse, in vivo, souris, voie orale, read-out: toxicité aiguë DL50. The procedure: On a trouvé, par exemple, que la toxicité aiguë DL50 de l'abiérixine chez la souris par voie orale est comprise entre 600 et 1000 mg/kg alors que, dans les mêmes conditions, la toxicité d'autres polyéthers polycycliques se révèle beaucoup plus importante, de l'ordre de 50 mg/kg (DL50 lonomycine : 50 mg/kg, complexe de monensine- : 43,8 mg/kg, salinomycine- : 50 mg/kg).

The test system of another data set is Eimeria tenella. The data set can be described thus: anticoccidial test in cockerels inoculated with Eimeria tenella. Type of data set: in vivo. As to conditions: for Lésion individuelle Moyenne: Reid lesion score; for IC de J - 2 à J + 8: feed conversion index; for EO x 10^3 Total: oocyst excretion J+4 to J+8; for EO %: oocyst excretion relative to CTNT; for P = poids moyen à J + 8: start weight 127 g. An excerpt:
Des tests ont été effectués de manière à montrer l'efficacité de l'abiérixine comme agent anticoccidien dans lesquels on a relevé les résultats zootechniques (poids, indice de consommation) et les symptômes […] de coccidiose (morbidité, mortalité, aspect des matières fécales, excrétion ookystale, lésions).
On a utilisé à cet effet le protocole expérimental suivant : • Animaux • - Coquelets de souche génétique Warren Sex Sal Link • - Age le jour de l'inoculation (J O) : 17 jours • - Age le jour de l'abattage (J +8) : 25 jours
Inoculum Dose : 300 000 oocystes sporulés d'Eimeria tenella
Alimentation • - Aliment utilisé : aliment type poulet de chair, 1er âge • - Anticoccidien utilisé : l'abiérixine à la dose de 40 ou 50 ppm/jour depuis J-2 jusqu'à J +8
Lots • - Nombre d'animaux par lot : 4 • - Répartition des lots : • NCNT : animaux non contaminés, non traités • CTNT : animaux contaminés, non traités • CTT, : animaux contaminés, traités avec 40 ppm d'abiérixine • CTT2 : animaux contaminés, traités avec 50 ppm d'abiérixine
Les critères • - Les gains de poids (GP) de J-2 à J +8 • - L'excrétion ookystale (EO) journalière de J+4 à J+8 • - La morbidité (M) notée de 0 à 4 • - L'aspect des fécès noté de 0 : fécès normales à 4 : fécès diarrhéiques ou hémorragiques (MF) • - La mortalité (M %) exprimée en pourcentage • - Les lésions (L) notées selon la notation de RFID (W. Malcolm REID, "A diagnostic chart of nine species of fowl coccidia - Georgia Agricultural Experiment Stations - Dec. 1964, Technical Bulletin N. S. 39) • - Les indices de consommation (IC)

The conditions of data set [1]: cited from earlier work.
The conditions of data set [2]: mouse, in vivo; cited from earlier work.
The subject of data set [3] is Streptomyces hygroscopicus NRRL 3602. The data set can be described thus: sensitivity of producer strain to nigericin (MIC). Type of data set: cell-based.
In data set [4] the test system is Streptomyces hygroscopicus NRRL B 1865. Description: sensitivity of producer strain to nigericin (MIC). Type of data set: cell-based.
In data set [5] the test system is Streptomyces C.N.C.M.-I-321. The data set can be described thus: sensitivity of producer strain to nigericin (MIC). The class given is cell-based.
Where [6] appears, read: CTT1: 40 ppm, J + 6, score 0 to 4.
[7] abbreviates: CTT1: 40 ppm, J + 7, score 0 to 4.
[8] abbreviates: CTT2: 50 ppm, J + 6, score 0 to 4.
Setting [9] is: CTT2: 50 ppm, J + 7, score 0 to 4.
Where [10] appears, read: souris, voie orale, comparison polyethers.

Take `COC1CC(CC(O)CCC(C)C=C(C)C(=O)O)OC2(OC(C)(C3CCC(C)(C4OC(C5OC(O)(CO)C(C)CC5C)CC4C)O3)CC2C)C1C` (stereo not shown) [abiérixine monohydratée]: the “Solubilité dans les solvants organiques usuels” value in the data set “solubility” (méthanol, éthanol, acétate d'éthyle, éther éthylique, chloroforme) is reported as “se dissout”. Further, the solubility in the data set “solubility” (water, read-out: Solubilité dans l'eau) is approximately 440 mg/mL (≈ 607 mM).
As to `COC1CC(CC(O)CCC(C)C=C(C)C(=O)O)OC2(OC(C)(C3CCC(C)(C4OC(C5OC(O)(CO)C(C)CC5C)CC4C)O3)CC2C)C1C` (stereo not shown) [abiérixine], the MIC with Bacillus cereus (read-out: concentration minimale inhibitrice) stood at 25 µg/mL (≈ 0.0345 mM). Besides, in the data set on flore ruménale, the “diminution de l'efficacité de la synthèse microbienne” value is 10%. In addition, the LD50 in “acute toxicity, oral” lay in the range of 600 to 1000 mg/kg. In the data set on Eimeria tenella (40 ppm/jour for 10 days, cockerels infected with E. tenella), the “croissance pondérale” value was “augmente la croissance pondérale”. For the same compound, the “M % (mortalité)” value in the data set on Eimeria tenella (CTT1: 40 ppm) and in the data set with Eimeria tenella (CTT2: 50 ppm) was 0% throughout. Besides, the “GP = gain de poids moyen de J - 2 à J + 8” value with Eimeria tenella (CTT1: 40 ppm in feed J-2 to J+8) was determined as 93 g; in the data set with Eimeria tenella (CTT2: 50 ppm in feed J-2 to J+8), 63 g. In addition, the “MF (aspect des fécès)” value is 4 with Eimeria tenella (CTT1: 40 ppm, J + 5, score 0 normal to 4 diarrhoeic or haemorrhagic); 1 in the data set with Eimeria tenella (setting [6]); 0 in the data set on Eimeria tenella (setting [7]); 3 in the data set with Eimeria tenella (CTT2: 50 ppm, J + 5, score 0 normal to 4 diarrhoeic or haemorrhagic); 1 in the data set on Eimeria tenella (setting [8]); 0 in the data set on Eimeria tenella (setting [9]). Further, the “M (morbidité)” value in the data set with Eimeria tenella (CTT1: 40 ppm, J + 5, score 0 to 4) was 3; in the data set on Eimeria tenella (setting [6]), 0; with Eimeria tenella (setting [7]), 0; in the data set with Eimeria tenella (CTT2: 50 ppm, J + 5, score 0 to 4) it was 3; in the data set with Eimeria tenella (setting [8]) it was 0; in the data set with Eimeria tenella (setting [9]) it was 0. The entries for the “Lésion individuelle Moyenne” value with Eimeria tenella (CTT1: 40 ppm) and in the data set on Eimeria tenella (CTT2: 50 ppm) were 2,5 and 3,5, respectively. For the same compound, the “IC de J - 2 à J + 8” value is listed as 2,8 in the data set on Eimeria tenella (CTT1: 40 ppm) and 3,35 with Eimeria tenella (CTT2: 50 ppm). In addition, the “EO x 10^3 Total” value in the data set on Eimeria tenella (CTT1: 40 ppm) was 4165 x 10^3; in the data set with Eimeria tenella (CTT2: 50 ppm), 2324 x 10^3. Also, the EO % in the data set with Eimeria tenella (CTT1: 40 ppm) is listed as 74,0%; in the data set on Eimeria tenella (CTT2: 50 ppm) it was 41,3%. Also, the “P = poids moyen à J + 8” value was determined as 219 g with Eimeria tenella (CTT1: infected cockerels, 40 ppm in feed J-2 to J+8) and 190 g with Eimeria tenella (CTT2: infected cockerels, 50 ppm in feed J-2 to J+8).
Turning to `CO[C@@H]1C[C@@H](C[C@H]2CC[C@H](C)C(C(C)C(=O)O)O2)O[C@]2(OC(C)(C3CCC(C)(C4O[C@@H]([C@H]5O[C@](C)(O)[C@H](C)C[C@@H]5C)C[C@@H]4C)O3)CC2C)[C@@H]1C` (stereo partly shown) [grisorixine], the concentration minimale inhibitrice with Bacillus cereus is on record as 3,12 gg/ml.
On to `CC[C@@H](C(=O)[C@@H](C)[C@@H](O)[C@H](C)[C@@H]1O[C@@H]([C@@H](CC)C(=O)O)CC[C@@H]1C)[C@H]1O[C@]2(C=C[C@@H](O)[C@]3(CC[C@@](C)([C@H]4CC[C@](O)(CC)[C@H](C)O4)O3)O2)[C@H](C)C[C@@H]1C` [salinomycine], for which the DL50 is reported as 50 mg/kg in data set [1] (mouse, in vivo, po) and 18 mg/kg in data set [2].
As to `COC1CC(CC(O)CCC(C)C=C(C)C(=O)O)OC2(OC(C)(C3CCC(C)(C4OC(C5OC(O)(CO)C(C)CC5C)CC4C)O3)CC2C)C1C` (stereo not shown) [sel de sodium de l'abiérixine], the “Solubilité dans l'eau” value in the data set “solubility” (water, in words) was “insoluble”.
complexe de monensine: the DL50 in [1] (setting [10]) is on record as 43,8 mg/kg.
Regarding lonomycine, the DL50 in data set [1] (setting [10]) is listed as 50 mg/kg.
Consider nigéricine, for which the concentration minimale inhibitrice with Bacillus cereus is on record as 0,05 ug/ml. Moreover, in the data set on flore ruménale, the “diminution de l'efficacité de la synthèse microbienne” value is listed as more than 30%. Further, the “Sensibilité à la nigéricine (C.M.I)” value in [3], in data set [4] and in [5] was more than 500 µg/mL each time.
